Patent US8551721B2, “Bioluminescent detection of cyanohydroxy benzothiazole compounds” (Promega Corporation, priority 2008, dated 2013)

Columns and labels:
Assay type in all cases: biochemical
UGT 1A9 = biological target: T1, UGT 1A9 (Homo sapiens, UniProt O60656); assay: UGT activity: utilization of substrate by recombinant UGT 1A9 Supersomes; conditions: 2 hour incubation at 37° C., plus vs minus UDPGA, background corrected
T1 construct: purchased BD Gentest; host or cells: insect cells (microsomes)
T1 sequence (O60656 26-530): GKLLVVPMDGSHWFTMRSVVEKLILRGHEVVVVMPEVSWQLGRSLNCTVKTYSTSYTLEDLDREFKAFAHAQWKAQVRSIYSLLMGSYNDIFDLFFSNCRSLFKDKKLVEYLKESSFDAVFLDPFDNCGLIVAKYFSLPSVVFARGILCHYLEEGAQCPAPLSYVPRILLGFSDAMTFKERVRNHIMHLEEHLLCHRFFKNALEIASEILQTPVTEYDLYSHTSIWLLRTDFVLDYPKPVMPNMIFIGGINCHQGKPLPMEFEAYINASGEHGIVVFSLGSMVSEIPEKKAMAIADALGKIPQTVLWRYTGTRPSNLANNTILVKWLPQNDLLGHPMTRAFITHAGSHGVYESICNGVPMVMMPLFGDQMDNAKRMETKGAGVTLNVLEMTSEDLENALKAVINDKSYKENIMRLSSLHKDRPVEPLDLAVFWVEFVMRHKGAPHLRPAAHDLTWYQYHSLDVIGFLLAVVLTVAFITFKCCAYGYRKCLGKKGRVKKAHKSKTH
Experimental: (§1) The invention includes a method of determining activity of the uridine 5′-diphospho-glucuronosyltransferase (UDP-glucuronosyltransferase, or UGT) family enzymes in vitro. Briefly, UGT enzymes from overexpressed insect microsomes (Supersomes™, BD Gentest™) or animal tissue microsomes (Xenotech, BD Gentest™) were incubated with a cyanobenzothiazole substrate of the invention and the cofactor UDP-glucuronic acid (UDPGA) at 37° C. in buffer at physiological pH containing MgCl2 and alamethicin (typically, 50 mM TES, pH 7.5, 8 mM MgCl2, 4 mM UDPGA (Sigma) and 25 μg/mL alamethicin (Sigma)). Following the UGT enzyme reaction, an equal volume of P450-Glo Luciferin Detection Reagent (Promega) containing 15-30 mM D-cysteine-HCl.H2O (Sigma) was added and the plate was mixed and incubated at room temperature, typically for 20-30 minutes. […]
(§2) During this incubation, the cysteine reacts with the cyanobenzathiozole substrate to yield a D-luciferin derivative. […] Therefore, activity of the UGT enzyme can be measured by analyzing the difference (lower or no output) in relative light units (RLU) of a sample in which glucuronidation occurs compared to a sample that was run under the same conditions with no added UDPGA cofactor. […]
(§3) Reactions were assembled in a white 96-well plate. […] After the incubation was completed, the plate was read on a Veritas™ luminometer (Turner BioSystems, Inc.; Sunnyvale, Calif.). […]

UGT 1A3 = biological target: T2, UGT 1A3 (Homo sapiens, UniProt P35503); assay: UGT activity: utilization of substrate by recombinant UGT 1A3 Supersomes; conditions: 2 hour incubation at 37° C., plus vs minus UDPGA
T2 construct: purchased BD Gentest; host or cells: insect cells (microsomes)
T2 sequence (P35503 29-534): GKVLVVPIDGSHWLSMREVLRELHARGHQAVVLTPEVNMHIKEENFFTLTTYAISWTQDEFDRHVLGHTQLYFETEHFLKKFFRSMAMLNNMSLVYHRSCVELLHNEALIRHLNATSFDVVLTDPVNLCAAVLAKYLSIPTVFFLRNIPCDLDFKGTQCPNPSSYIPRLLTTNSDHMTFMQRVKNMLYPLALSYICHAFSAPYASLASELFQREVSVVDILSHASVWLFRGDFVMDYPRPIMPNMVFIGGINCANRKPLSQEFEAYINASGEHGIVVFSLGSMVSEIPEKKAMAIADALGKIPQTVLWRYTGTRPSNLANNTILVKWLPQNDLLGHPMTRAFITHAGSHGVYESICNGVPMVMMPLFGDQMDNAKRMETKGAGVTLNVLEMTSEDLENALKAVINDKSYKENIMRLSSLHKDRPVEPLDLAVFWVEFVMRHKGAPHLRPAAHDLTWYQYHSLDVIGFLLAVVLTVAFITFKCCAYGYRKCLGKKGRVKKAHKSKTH
Experimental: as §1, §2, §3

UGT 2B7 = biological target: T3, UGT 2B7 (Homo sapiens, UniProt P16662); assay: UGT activity: utilization of substrate by recombinant UGT 2B7 Supersomes; conditions: 2 hour incubation at 37° C., plus vs minus UDPGA, background corrected
T3 construct: purchased BD Gentest; host or cells: insect cells (microsomes)
T3 sequence (P16662 24-529): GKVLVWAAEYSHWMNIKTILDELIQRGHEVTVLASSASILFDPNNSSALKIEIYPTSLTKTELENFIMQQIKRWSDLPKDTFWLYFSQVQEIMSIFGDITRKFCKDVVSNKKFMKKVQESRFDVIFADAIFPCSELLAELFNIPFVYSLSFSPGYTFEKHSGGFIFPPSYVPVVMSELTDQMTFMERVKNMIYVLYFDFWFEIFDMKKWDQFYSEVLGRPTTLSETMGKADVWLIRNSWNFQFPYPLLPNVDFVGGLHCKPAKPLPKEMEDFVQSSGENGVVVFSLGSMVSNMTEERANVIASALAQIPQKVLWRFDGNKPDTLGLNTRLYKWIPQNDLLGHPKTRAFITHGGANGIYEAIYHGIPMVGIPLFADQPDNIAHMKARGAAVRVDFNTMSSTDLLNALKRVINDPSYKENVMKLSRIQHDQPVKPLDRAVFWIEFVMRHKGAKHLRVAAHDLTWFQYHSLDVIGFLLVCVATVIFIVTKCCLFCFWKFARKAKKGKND
Experimental: as §1, §2, §3

Cc1cc(O)cc2sc(C#N)nc12 [compound 3138]
% utilization by UGT 1A9 (UGT 1A9): over 50% | utilization by UGT 1A3 (in words) (UGT 1A3): detectable levels of utilization above background | % utilization by UGT 2B7 (UGT 2B7): over 50%

Cc1cc(O)cc2sc(C3=NC(C(=O)O)CS3)nc12 (stereo not drawn) [compound 3478]
% utilization by UGT 1A9 (UGT 1A9): ≤ 15% | utilization by UGT 1A3 (in words) (UGT 1A3): only UGT 1A6 was able to utilize compound 3478 to any appreciable extent | % utilization by UGT 2B7 (UGT 2B7): ≤ 15%
